The values that follow come from patent US11266714B2, “Chloride salt of TAT-NR2B9C” (NoNO Inc., priority 2014, dated 2022).

A short description of this data set: Solubility study of TAT-NR2B9c, visual analysis. To be noted: pH 6.5, 35, 50, 75 and 100 mg/mL, t=0 and t=24 hours. It is filed as physicochemical. The protocol: Due to the relatively low Tg temperatures that would likely require a longer lyophilization cycle to dry, we looked at a wider range of standard bulking agents and looked to reduce the fill volume into the container closure system so that there would be a reduced volume of liquid to lyophilize. […] Samples were visually analyzed at 35, 50, 75 and 100 mg/mL. All solutions were clear at t=0 and t=24 hours. […] A wide range of quantities may be required in a vial, but 270 mg would provide a […] dose for a 100 kg patient. Assuming the target reconstitution concentration for patient administration is still 20 mg/mL (but can be from 1 mg/ml to 100 mg/ml), then a 20-mL lyophilization vial containing 270 mg of TAT-NR2B9c can be used with a reconstitution volume of 13.5 mL. Therefore, optimal volumes of liquid for lyophilization of TAT-NR2B9c in the vial would be between 2.5 mL and 10 mL.

No end group written: not given here.

On to YGRKKRRQRRRKLSSIESDV [TAT-NR2B9c], for which the “solubility, visual analysis” value was “clear” (in Histidine+Trehalose) and “clear” (in Histidine).
